Article PMC7808732 (Biochemical and Biophysical Research Communications, 2021)

Molecular target: RNA-binding domain (RBD) of the SARS-CoV-2 nucleocapsid (N) protein, RBD (44–180) (Severe acute respiratory syndrome coronavirus 2, UniProt P0DTC9)
Assay: biochemical

Nc1ncnc2c1ncn2[C@@H]1O[C@H](COP(=O)(O)OP(=O)(O)OP(=O)(O)O)[C@@H](O)[C@H]1O [ATP]
Kd: 3.3 ± 0.4 mM
